# System: San Carlos virus
# Assay: Dimethylphenols against San Carlos virus in tissue culture (human embryonic lung), CPE
# Type: cell-based, San Carlos virus (adenovirus)
# Conditions: for CPE with TCID50 doses of San Carlos virus: human embryonic lung, 100 TCID50; for anti-viral activity against San Carlos virus: at various concentrations
smiles,measurement,setting,value
"Cc1ccc(O)cc1C [3,4-dimethylphenol, reference compound]",CPE with TCID50 doses of San Carlos virus,10^-6 grams 2X,2+ (50% of cells infected with selected virus)
same,CPE with TCID50 doses of San Carlos virus,10^-7 grams 2X,1+ (25% of cells infected with selected virus)
same,CPE with TCID50 doses of San Carlos virus,10^-8 grams 2X,1+ (25% of cells infected with selected virus)
same,CPE with TCID50 doses of San Carlos virus,10^-9 grams 2X,1+ (25% of cells infected with selected virus)
same,CPE with TCID50 doses of San Carlos virus,10^-10 grams 2X,2+ (50% of cells infected with selected virus)
same,CPE with TCID50 doses of San Carlos virus,10^-11 grams 2X,2+ (50% of cells infected with selected virus)
same,CPE with TCID50 doses of San Carlos virus,10^-12 grams 2X,1+ (25% of cells infected with selected virus)
same,CPE with TCID50 doses of San Carlos virus,10^-13 grams 2X,2+ (50% of cells infected with selected virus)
same,CPE with TCID50 doses of San Carlos virus,10^-14 grams 2X,2+ (50% of cells infected with selected virus)
same,CPE with TCID50 doses of San Carlos virus,10^-15 grams 2X,1+ (25% of cells infected with selected virus)
"Cc1cccc(C)c1O [2,6-dimethylphenol]",CPE with TCID50 doses of San Carlos virus,10^-6 grams 2X,2+ (50% of cells infected with selected virus)
same,CPE with TCID50 doses of San Carlos virus,10^-7 grams 2X,2+ (50% of cells infected with selected virus)
same,CPE with TCID50 doses of San Carlos virus,10^-8 grams 2X,1+ (25% of cells infected with selected virus)
same,CPE with TCID50 doses of San Carlos virus,10^-9 grams 2X,2+ (50% of cells infected with selected virus)
same,CPE with TCID50 doses of San Carlos virus,10^-10 grams 2X,1+ (25% of cells infected with selected virus)
same,CPE with TCID50 doses of San Carlos virus,10^-11 grams 2X,3+ (75% of cells infected with selected virus)
same,CPE with TCID50 doses of San Carlos virus,10^-12 grams 2X,2+ (50% of cells infected with selected virus)
same,CPE with TCID50 doses of San Carlos virus,10^-13 grams 2X,2+ (50% of cells infected with selected virus)
same,CPE with TCID50 doses of San Carlos virus,10^-14 grams 2X,1+ (25% of cells infected with selected virus)
same,CPE with TCID50 doses of San Carlos virus,10^-15 grams 2X,1+ (25% of cells infected with selected virus)
same,anti-viral activity against San Carlos virus,,exhibit anti-viral activity
"Cc1ccc(C)c(O)c1 [2,5-dimethylphenol]",CPE with TCID50 doses of San Carlos virus,10^-6 grams 2X,3+ (75% of cells infected with selected virus)
same,CPE with TCID50 doses of San Carlos virus,10^-7 grams 2X,2+ (50% of cells infected with selected virus)
same,CPE with TCID50 doses of San Carlos virus,10^-8 grams 2X,1+ (25% of cells infected with selected virus)
same,CPE with TCID50 doses of San Carlos virus,10^-9 grams 2X,± (less than 10% infected)
same,CPE with TCID50 doses of San Carlos virus,10^-10 grams 2X,1+ (25% of cells infected with selected virus)
same,CPE with TCID50 doses of San Carlos virus,10^-11 grams 2X,1+ (25% of cells infected with selected virus)
same,CPE with TCID50 doses of San Carlos virus,10^-12 grams 2X,± (less than 10% infected)
same,CPE with TCID50 doses of San Carlos virus,10^-13 grams 2X,± (less than 10% infected)
same,CPE with TCID50 doses of San Carlos virus,10^-14 grams 2X,± (less than 10% infected)
same,CPE with TCID50 doses of San Carlos virus,10^-15 grams 2X,2+ (50% of cells infected with selected virus)
same,anti-viral activity against San Carlos virus,,exhibit anti-viral activity
"Cc1cccc(O)c1C [2,3-dimethylphenol]",CPE with TCID50 doses of San Carlos virus,10^-6 grams 2X,3+ (75% of cells infected with selected virus)
same,CPE with TCID50 doses of San Carlos virus,10^-7 grams 2X,2+ (50% of cells infected with selected virus)
same,CPE with TCID50 doses of San Carlos virus,10^-8 grams 2X,2+ (50% of cells infected with selected virus)
same,CPE with TCID50 doses of San Carlos virus,10^-9 grams 2X,1+ (25% of cells infected with selected virus)
same,CPE with TCID50 doses of San Carlos virus,10^-10 grams 2X,1+ (25% of cells infected with selected virus)
same,CPE with TCID50 doses of San Carlos virus,10^-11 grams 2X,1+ (25% of cells infected with selected virus)
same,CPE with TCID50 doses of San Carlos virus,10^-12 grams 2X,2+ (50% of cells infected with selected virus)
same,CPE with TCID50 doses of San Carlos virus,10^-13 grams 2X,1+ (25% of cells infected with selected virus)
same,CPE with TCID50 doses of San Carlos virus,10^-14 grams 2X,2+ (50% of cells infected with selected virus)
same,CPE with TCID50 doses of San Carlos virus,10^-15 grams 2X,2+ (50% of cells infected with selected virus)
same,anti-viral activity against San Carlos virus,,exhibit anti-viral activity
